Data published in patent US7183099B2, “Inhibitors of autoinducer transporters” (Princeton University, priority 2001, dated 2007).
Entries after “also recorded” stand apart in the source; their conditions may differ.

What was measured:
Lsr ABC transporter [1] = assay: Removal of exogenous AI-2 from S. typhimurium culture fluids; type: cell-based; conditions: 1 h
Experimental: (§1) Cultures of S. typhimurium luxS null strains containing a wild type lsr operon or containing mutations inactivating lsr genes were grown to mid-exponential phase in LB at 37° C. AI-2 prepared by our in vitro method was added to the cultures, and the cultures were incubated with the AI-2 for an hour. Subsequently, the cells were removed from the culture fluid by centrifugation, and the resulting cell-free culture fluids were assayed for AI-2 activity using the V. harveyi AI-2 bioassay. This assay involves measuring the increase in light production of a V. harveyi quorum sensing reporter strain that induces bioluminescence exclusively in response to the presence of AI-2. In the present experiment, the bioassay allowed us to determine the level of AI-2 activity remaining in the culture fluids of the different S. typhimurium mutants. Since all the S. typhimurium strains we used in this experiment contained null mutations in luxS, the only AI-2 that could be present in the cell-free culture fluids came from that that we added exogenously.
(§2) Relative levels of AI-2 in cell-free culture fluids of S. typhimurium strains of interest were measured using a V. harveyi bioluminescence assay, as described previously (Bassler et al., 1993; Bassler et al., 1997). Cell-free culture fluids were prepared as described (Surette and Bassler, 1998; Surette et al., 1999). These preparations were assayed for AI-2 activity at 10% (vol/vol), using V. harveyi reporter strain BB170 (luxN::Tn5), as described (Bassler et al., 1993). AI-2 activity is reported as fold induction over background of bioluminescence. To examine the role of Lsr in the uptake of AI-2, cultures of S. typhimurium were grown overnight, diluted 1:100 into fresh LB, and grown for a total of 4 hours. During the final hour of growth, the cells were incubated with 70 μM in vitro prepared AI-2 for specified times (Schauder et al., 2001). Subsequently, the cultures were chilled on ice and cell-free culture fluids were prepared. The AI-2 remaining in these preparations was measured in the V. harveyi bioluminescence assay. Assays were performed in duplicate.

Lsr ABC transporter [2] = molecular target: T1, Lsr ABC transporter (Salmonella typhimurium, UniProt Q8ZKQ1); assay: as above; type: cell-based; conditions: for input AI-2 activity remaining: wild type lsrR strain
T1 construct: containing a wild type lsr operon; endogenous in cells; host or cells: S. typhimurium 14028 derivatives in a luxS null background (parent SS007, luxS::T-POP; also MET342, ΔlsrR)
Experimental: as §1, §2

[3] = tested on: V. harveyi reporter strain BB170 (Sensor 1−, Sensor 2+); type: cell-based, Vibrio harveyi
Experimental: Cell-free culture fluids from E. coli, S. typhimurium and V. harveyi strains were tested for the presence of signaling substances that could induce luminescence in the V. harveyi reporter strain BB170 or BB886. […] Positive control wells contained 10 μl of cell-free culture fluid from strain V. harveyi BB152 (Autoinducer-1^−, Autoinducer-2^+) or V. harveyi BB120 (Autoinducer-1^+, Autoinducer-2^+). Negative control wells contained 10 μl of sterile growth medium. The microtiter dishes were shaken in a rotary shaker at 175 rpm at 30° C.
The cell density was measured by diluting the same aliquots of cells used for measuring luminescence, spreading the dilutions onto solid LM medium, incubating the plates overnight at 30° C., and counting the resulting colonies the following day. […] Cell-free culture supernatants from V. harveyi or S. typhimurium strains were added to a final concentration of 10% (v/v) at the time of the first measurement. In control experiments, 10% (v/v) of AB medium, LB medium or LB medium containing 0.5% glucose was added instead of cell-free culture fluids.

rck::MudJ fusion (SdiA) = assay: SdiA regulated rck::MudJ fusion assay; type: cell-based; conditions: AI-2 from E. coli or S. typhimurium; sdiA+ and sdiA− backgrounds
Experimental: For ftsQ regulation in E. coli, the plasmids pMS207 and pMS209 were transformed into E. coli strain MC4100 (Silhavy et al., 1984, supra), and the transformants were grown overnight in LB containing 100 mg/L ampicillin at 30° C. with aeration. For rck regulation, S. typhimurium strains BA1105 (rck::MudJ) and BA1305 (rck::MudJ sdiA) were grown overnight in LB containing 100 mg/L kanamycin at 30° C. with aeration. The overnight cultures were diluted 20-fold into fresh medium and grown for an additional 4.5 h. At this time, each culture was divided into five identical aliquots and 10% (v/v) of one of the following was added to each aliquot: LB, 0.4 M NaCl, […] osmotic shock fluids from S. typhimurium LT2, E. coli O157 or E. coli strain DH5 (negative control). The osmotic shock fluids were prepared as described above, following pregrowth of the S. typhimurium LT2 and E. coli in LB containing 0.5% glucose for 6h. The cell suspensions were incubated at 30° C. for 2 h, after which standard -galactosidase reactions were performed on the samples (Miller, A Short Course in Bacterial Genetics, Cold Spring Harbor Laboratory Press, 1992).

[4] = S. typhimurium cell-free spent culture fluids; cited from earlier work
[5] = tested on: lsr operon (lsr-lacZ fusions); assay: β-galactosidase assay of lsr::MudJ (lacZ) fusions; type: cell-based, S. typhimurium
Experimental: Various S. typhimurium lsr::MudJ fusion strains were grown to late exponential phase in LB medium supplemented with AI-2 prepared by our in vitro method at an approximate concentration of 70 μM. This is roughly twice the concentration of AT-2 that we estimate to be present in S. typhimurium cell-free supernatants (not shown). As a control, we performed the same experiment with material from in vitro reactions carried out with SAH and Pfs enzyme in the absence of the LuxS enzyme. This reaction produces adenine and SRH. Homocysteine was added to this control mixture following the reaction to compensate for the homocysteine that would be produced by LuxS. Therefore, the only component absent from the control reaction was AI-2.
Cultures of S. typhimurium that had been grown overnight were diluted 1:100 into fresh LB and grown for 4 hours. For strains containing plasmids, cultures were diluted in LB supplemented with Amp. When necessary, AI-2 was synthesized in vitro and added to the growth media at the time of inoculation (Schauder et al., 2001). Cells from 1 ml of these cultures were harvested and resuspended in 1 ml Z buffer. P-galactosidase assays were performed using a microtitre plate assay, as described (Slauch and Silhavy, 1991). β-galactosidase units were calculated as (0.1*mOD420/min)/[OD600 of cells*Volume (ml)]. All assays were performed in triplicate.

[6] = wild type lsr strain (luxS null), 1 h incubation

CC(=O)C(=O)C(O)CO (centres unmarked) [AI-2, 4,5-dihydroxy-2,3-pentanedione]
elimination of AI-2 from the culture fluids (Lsr ABC transporter [1]; MudJ insertion mutants in lsrA, lsrC and lsrB): unable to eliminate AI-2 from the culture fluids | level of AI-2 versus input (Lsr ABC transporter [1]; ΔlsrR, lsrC::MudJ double mutant): the level of AI-2 did not decrease compared to the input activity | activity gone from the culture fluids (Lsr ABC transporter [2]; inactivation of lsrR, 1 h incubation): over 99% | AI-2 activity remaining (induction of the bioassay strain) (Lsr ABC transporter [2]; [6]): 80 fold | disappearance of AI-2 activity from the culture fluid (Lsr ABC transporter [2]; [6]): 92% | input AI-2 activity remaining (Lsr ABC transporter [2]; 2 min): 97% | input AI-2 activity remaining (Lsr ABC transporter [2]; 15 min): 85% | input AI-2 activity remaining (Lsr ABC transporter [2]; 30 min): 82% | input AI-2 activity remaining (Lsr ABC transporter [2]; 45 min): 75% | input AI-2 activity remaining (Lsr ABC transporter [2]; 60 min): 6% | signaling activity degraded ([3]; 0.4 M NaCl shock fluid activity incubated 2 h with S. typhimurium cells pre-incubated in 0.1 M NaCl): greater than 98% | input AI-2 activity (induction of V. harveyi bioluminescence reporter) ([3]; in vitro prepared AI-2 added to S. typhimurium culture, chilled immediately): 1000 fold | stimulation in light production in the bioassay ([3]; in vitro reaction: dialyzed LuxS− cell extract + SAM + LuxS protein, MW<5000 filtrate): over 500 fold | change in β-galactosidase production of rck::MudJ (rck::MudJ fusion (SdiA)): No change | stability of AI-2 in cell-free culture fluids [4]: stable for long periods of time; also recorded: remains active for long periods of time | expression of the lsr-lacZ fusions ([5]; strains lacking luxS, 70 μM exogenous AI-2): induces the expression of the lsr-lacZ fusions to levels above that when wild type luxS is present | expression of the lsr-lacZ fusions ([5]; wild type luxS strains, exogenous AI-2 added): additional stimulation of the expression of the lsr-lacZ fusions
